Results taken from US10301304B2, “Selective inhibitor of phosphatidylinositol 3-kinase-gamma” (VERTEX PHARMACEUTICALS INCORPORATED, priority 2013, dated 2019).
Where two headings read alike, the source gives them in different places. Marks after values point to notes of the source that are not given here.

What was measured:
PI3K-α = PI3K-α (Homo sapiens, UniProt P42336); assay: PI3K Inhibition Assay; type: biochemical
Experimental: (§1) Using a Biomek FX from Beckman Coulter, 1.5 μL of each of ten 2.5-fold serial dilutions of the compound of the invention in 100% DMSO was added to an individual well (hereafter, “test well”) in a 96 well polystyrene plate [Corning, Costar Item No. 3697]. One test well also contained 1.5 μL of DMSO with no compound. […] Using a Titertek Multidrop, 50 μL of Reaction Mix [100 mM HEPES pH 7.5, 50 mM NaCl, 10 mM DTT, 0.2 mg/mL BSA, 60 μM phosphatidylinositol(4,5)-bisphosphate diC16 (PI(4,5)P2; Avanti Polar Lipids, Cat. No. 840046P) and PI3K isoform of interest (see Table 1 for isoform concentrations)] was added to each well. To initiate the reaction, 50 μL of ATP Mix [20 mM MgCl2, 6 μM ATP (100 μCi/μmole ^33P-ATP was added to each well, followed by incubating the wells for 30 min. at 25° C. Final concentrations in each well were 50 mM HEPES 7.5, 10 mM MgCl2, 25 mM NaCl, 5 mM DTT, 0.1 mg/mL BSA, 30 μM PI(4,5)P2, 3 μM ATP, and the PI3K isoform of interest (see Table 2). Final compound concentrations in each well ranged from 10 μM to 1 nM.
(§2) After incubation, the reactions in each well were quenched by addition of 50 μL of stop solution [30% TCA/Water, 10 mM ATP]. Each quenched reaction mixture was then transferred to a 96 well glass fiber filter plate [Corning, Costar Item No. 3511]. The plate was vacuum-filtered and washed three times with 150 μL of 5% TCA/water in a modified Bio-Tek Instruments ELX-405 Auto Plate Washer. 50 μL of scintillation fluid was added to each well and the plate read on a Perkin-Elmer TopCount™ NXT liquid scintillation counter to obtain ^33P-counts representing inhibition values.
(§3) The value for the background well was subtracted from the value obtained for each test well and the data were fit to the competitive tight binding Ki equation described by Morrison and Stone, Comments Mol. Cell Biophys. 2: 347-368, 1985. […] In addition, isoform selectivity was also seen as Compound 1 was tested against PI3K-alpha, PI3K-beta, and PI3K-delta isoforms and was determined to have a selectivity of greater than 15 fold for PI3K-gamma as shown in Table 2.

PI3K-β = PI3K-β (Homo sapiens, UniProt P42338); assay: PI3K Inhibition Assay; type: biochemical
Experimental: as §1, §2, §3

PI3K-γ = PI3K-γ (Homo sapiens, UniProt P48736); assay: PI3K Inhibition Assay; type: biochemical
Experimental: as §1, §2, §3

PI3K-δ = PI3K-δ (Homo sapiens, UniProt O00329); assay: PI3K Inhibition Assay; type: biochemical
Experimental: as §1, §2, §3

HUVECs = assay: HUVEC Proliferation Assay; type: cell-based, human; settings: for IC50: Homo sapiens, HUVEC
Experimental: PI3Ks are important signaling molecules downstream of a number of growth factors that regulate cell survival, growth and cell cycle entry. Both PI3K-alpha and PI3K-beta isoforms regulate cell cycle entry; inhibition of either isoform leads to reduced cell growth. HUVECs are primary human umbilical vein endothelial cells which express both the PI3Kα and PI3Kβ isoforms. Inhibition of either or both PI3K-alpha or PI3K-beta isoforms will inhibit the cell growth of HUVECs. Compounds are plated onto HUVECs, cell proliferation/viability is measure 96 hours post compound treatment using cell titer-glo to measure the ATP content of the cells in the well. Lack of or reduced proliferation is a measure of the extent of PI3K-alpha and/or PI3K-beta inhibition.

CYP1A2 = CYP1A2 Induction in Human Hepatocytes; type: in vitro ADME
Experimental: CYP activity was determined by monitoring metabolite formation of specific CYP probe substrates (phenacetin for CYP1A2 and testosterone for CYP3A4) using LC-MS/MS. CYP messenger ribonucleic acid (mRNA) was analyzed by RT-PCR to confirm CYP induction potential.

[1] = Oral pharmacokinetics / bioavailability; type: in vivo; settings: single oral; for AUC / AUC(0-inf) / Cmax / MRT / Tmax / half-life: in vivo
Source text: The bioavailability in monkey (greater than 100%) may be explained by the tenfold difference between the IV and oral doses. Compound 1 was rapidly absorbed in all species, with maximum systemic concentration observed within approximately one to three hours of dosing.

[2] = Dog, 3 mg/kg nominal, spray-dried dispersion
[3] = Monkey, 5 mg/kg nominal, spray-dried dispersion
[4] = Mouse, 1 mg/kg nominal, 0.2% MC/1% SLS

PI3K-γ, sequence (P48736 whole entry, species assumed): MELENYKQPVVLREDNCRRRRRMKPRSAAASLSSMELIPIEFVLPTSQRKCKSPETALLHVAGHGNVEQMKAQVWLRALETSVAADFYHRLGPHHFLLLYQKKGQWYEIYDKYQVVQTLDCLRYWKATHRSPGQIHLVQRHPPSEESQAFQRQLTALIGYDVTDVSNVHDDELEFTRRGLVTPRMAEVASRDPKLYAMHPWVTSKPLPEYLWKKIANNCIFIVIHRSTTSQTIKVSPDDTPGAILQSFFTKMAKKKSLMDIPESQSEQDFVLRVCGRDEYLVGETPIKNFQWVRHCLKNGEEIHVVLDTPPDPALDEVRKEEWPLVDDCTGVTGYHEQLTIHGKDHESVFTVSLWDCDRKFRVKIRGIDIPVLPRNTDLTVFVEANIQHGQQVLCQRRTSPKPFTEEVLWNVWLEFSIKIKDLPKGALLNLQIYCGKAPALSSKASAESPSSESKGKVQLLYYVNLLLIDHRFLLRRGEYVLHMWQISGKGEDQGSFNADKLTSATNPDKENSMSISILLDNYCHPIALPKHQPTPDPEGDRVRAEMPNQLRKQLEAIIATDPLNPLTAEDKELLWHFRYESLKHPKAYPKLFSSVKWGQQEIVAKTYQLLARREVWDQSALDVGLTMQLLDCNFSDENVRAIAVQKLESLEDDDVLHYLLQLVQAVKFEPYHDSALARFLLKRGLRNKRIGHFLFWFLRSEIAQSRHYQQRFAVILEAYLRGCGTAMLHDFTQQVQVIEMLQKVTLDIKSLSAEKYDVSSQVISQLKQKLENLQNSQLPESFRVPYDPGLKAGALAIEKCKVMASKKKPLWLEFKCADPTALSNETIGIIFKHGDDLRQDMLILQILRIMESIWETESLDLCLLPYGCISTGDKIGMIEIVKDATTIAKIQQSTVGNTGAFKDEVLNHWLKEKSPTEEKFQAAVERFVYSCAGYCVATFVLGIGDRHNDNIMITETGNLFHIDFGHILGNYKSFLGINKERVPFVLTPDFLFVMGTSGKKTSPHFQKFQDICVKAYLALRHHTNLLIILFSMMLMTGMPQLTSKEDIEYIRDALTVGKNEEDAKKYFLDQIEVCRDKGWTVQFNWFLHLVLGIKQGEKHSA
PI3K-β, sequence (P42338 whole entry, species assumed): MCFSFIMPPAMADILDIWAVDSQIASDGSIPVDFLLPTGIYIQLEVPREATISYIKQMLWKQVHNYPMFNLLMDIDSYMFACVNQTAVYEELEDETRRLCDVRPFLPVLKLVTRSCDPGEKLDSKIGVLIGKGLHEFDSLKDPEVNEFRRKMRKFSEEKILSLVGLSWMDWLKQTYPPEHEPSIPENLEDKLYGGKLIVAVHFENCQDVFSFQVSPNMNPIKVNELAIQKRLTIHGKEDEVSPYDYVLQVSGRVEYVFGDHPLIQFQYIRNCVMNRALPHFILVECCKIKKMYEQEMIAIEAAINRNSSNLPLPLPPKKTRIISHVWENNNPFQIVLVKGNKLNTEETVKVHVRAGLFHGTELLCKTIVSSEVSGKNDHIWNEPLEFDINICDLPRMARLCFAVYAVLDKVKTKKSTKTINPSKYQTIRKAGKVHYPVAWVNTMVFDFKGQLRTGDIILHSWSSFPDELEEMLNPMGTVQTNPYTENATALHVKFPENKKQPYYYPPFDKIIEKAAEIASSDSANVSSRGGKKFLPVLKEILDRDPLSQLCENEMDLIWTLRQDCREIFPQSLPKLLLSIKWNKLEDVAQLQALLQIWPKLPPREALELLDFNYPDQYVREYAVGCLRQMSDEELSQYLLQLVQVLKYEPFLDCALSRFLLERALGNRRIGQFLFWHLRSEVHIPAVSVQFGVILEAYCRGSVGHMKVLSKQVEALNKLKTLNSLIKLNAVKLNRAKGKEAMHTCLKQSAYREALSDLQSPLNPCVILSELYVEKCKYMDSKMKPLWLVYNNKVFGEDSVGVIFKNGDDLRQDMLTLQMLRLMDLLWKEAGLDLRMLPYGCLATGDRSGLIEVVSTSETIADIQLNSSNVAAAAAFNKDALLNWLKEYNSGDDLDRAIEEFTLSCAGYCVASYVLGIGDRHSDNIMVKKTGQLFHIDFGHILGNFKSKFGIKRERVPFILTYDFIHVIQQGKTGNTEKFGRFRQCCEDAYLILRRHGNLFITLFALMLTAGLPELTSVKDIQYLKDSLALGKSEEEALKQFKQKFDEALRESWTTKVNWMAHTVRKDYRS
PI3K-β, sequence (P27986 whole entry partner, species assumed): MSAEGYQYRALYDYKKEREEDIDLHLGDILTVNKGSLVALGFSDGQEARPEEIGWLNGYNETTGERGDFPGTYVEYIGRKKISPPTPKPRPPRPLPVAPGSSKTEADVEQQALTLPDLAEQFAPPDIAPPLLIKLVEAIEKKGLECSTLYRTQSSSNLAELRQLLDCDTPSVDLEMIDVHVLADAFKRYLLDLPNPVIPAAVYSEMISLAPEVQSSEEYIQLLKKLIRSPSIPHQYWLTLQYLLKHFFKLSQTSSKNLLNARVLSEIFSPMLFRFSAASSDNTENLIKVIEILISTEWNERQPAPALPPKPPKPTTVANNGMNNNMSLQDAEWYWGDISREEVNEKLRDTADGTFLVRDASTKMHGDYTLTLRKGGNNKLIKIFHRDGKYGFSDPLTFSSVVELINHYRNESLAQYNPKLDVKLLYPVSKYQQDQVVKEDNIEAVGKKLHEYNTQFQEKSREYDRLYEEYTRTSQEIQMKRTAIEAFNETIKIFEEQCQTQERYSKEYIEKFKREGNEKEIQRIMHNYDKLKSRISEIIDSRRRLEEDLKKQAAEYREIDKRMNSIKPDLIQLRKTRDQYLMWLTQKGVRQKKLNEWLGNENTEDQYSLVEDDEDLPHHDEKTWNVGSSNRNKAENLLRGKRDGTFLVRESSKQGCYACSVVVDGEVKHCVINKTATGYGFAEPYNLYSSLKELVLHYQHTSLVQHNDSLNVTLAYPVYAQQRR
PI3K-α, sequence (P42336 whole entry, species assumed, canonical isoform): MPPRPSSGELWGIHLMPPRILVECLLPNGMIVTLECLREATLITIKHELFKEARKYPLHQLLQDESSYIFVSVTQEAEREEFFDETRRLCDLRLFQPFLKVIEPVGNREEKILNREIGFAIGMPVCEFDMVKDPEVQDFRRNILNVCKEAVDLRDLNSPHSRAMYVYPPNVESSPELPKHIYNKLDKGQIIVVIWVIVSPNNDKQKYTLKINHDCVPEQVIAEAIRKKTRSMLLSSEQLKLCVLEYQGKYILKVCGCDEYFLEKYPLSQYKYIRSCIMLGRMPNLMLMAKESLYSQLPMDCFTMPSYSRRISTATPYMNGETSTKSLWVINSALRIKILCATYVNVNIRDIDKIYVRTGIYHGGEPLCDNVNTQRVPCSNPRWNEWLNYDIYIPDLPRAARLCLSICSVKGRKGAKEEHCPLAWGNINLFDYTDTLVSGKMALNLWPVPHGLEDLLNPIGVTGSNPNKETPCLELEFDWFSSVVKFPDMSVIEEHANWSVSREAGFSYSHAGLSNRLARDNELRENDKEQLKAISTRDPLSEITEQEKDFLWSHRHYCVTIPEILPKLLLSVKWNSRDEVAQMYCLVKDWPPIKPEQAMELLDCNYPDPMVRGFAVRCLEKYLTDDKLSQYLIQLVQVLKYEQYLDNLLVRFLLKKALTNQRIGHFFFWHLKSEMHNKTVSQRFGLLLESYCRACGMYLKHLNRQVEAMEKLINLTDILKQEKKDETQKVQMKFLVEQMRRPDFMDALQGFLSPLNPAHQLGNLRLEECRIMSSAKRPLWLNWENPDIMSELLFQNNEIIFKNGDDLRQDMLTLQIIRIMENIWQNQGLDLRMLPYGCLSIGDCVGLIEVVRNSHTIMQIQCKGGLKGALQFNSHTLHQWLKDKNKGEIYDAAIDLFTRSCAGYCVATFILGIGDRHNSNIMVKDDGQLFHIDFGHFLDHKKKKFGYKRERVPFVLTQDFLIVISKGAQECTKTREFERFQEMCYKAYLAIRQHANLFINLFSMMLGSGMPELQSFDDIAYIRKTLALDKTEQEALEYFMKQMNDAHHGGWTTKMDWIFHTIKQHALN
PI3K-α, sequence (P27986 whole entry partner, species assumed, canonical isoform): as the sequence (P27986 whole entry partner, species assumed) above
PI3K-δ, sequence (O00329 whole entry, species assumed): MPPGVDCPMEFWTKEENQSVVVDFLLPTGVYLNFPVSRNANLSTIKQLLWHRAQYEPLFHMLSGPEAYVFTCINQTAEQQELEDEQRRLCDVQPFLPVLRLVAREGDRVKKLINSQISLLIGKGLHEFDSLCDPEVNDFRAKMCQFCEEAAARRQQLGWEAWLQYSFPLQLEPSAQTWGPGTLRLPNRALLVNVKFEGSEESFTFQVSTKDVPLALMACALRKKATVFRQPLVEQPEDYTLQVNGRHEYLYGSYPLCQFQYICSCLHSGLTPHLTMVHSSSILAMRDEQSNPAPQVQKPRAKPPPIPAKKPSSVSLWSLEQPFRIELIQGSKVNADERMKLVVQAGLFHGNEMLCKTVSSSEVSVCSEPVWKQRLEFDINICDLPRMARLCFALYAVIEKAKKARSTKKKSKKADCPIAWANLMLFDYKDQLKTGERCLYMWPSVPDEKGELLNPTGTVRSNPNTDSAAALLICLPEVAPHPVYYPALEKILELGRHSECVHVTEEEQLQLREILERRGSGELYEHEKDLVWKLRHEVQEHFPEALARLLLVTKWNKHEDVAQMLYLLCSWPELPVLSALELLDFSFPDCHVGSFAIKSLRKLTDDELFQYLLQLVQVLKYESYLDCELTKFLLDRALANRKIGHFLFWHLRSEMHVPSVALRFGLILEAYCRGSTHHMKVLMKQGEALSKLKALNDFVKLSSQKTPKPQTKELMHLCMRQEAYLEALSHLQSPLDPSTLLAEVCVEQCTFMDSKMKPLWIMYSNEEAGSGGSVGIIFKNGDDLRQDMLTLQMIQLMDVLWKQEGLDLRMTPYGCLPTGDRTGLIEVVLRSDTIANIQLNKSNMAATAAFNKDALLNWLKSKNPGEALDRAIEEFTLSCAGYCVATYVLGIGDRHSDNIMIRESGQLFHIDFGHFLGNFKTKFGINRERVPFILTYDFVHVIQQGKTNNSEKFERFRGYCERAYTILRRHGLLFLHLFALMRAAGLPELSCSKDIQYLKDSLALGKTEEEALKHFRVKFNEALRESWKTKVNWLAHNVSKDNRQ
PI3K-δ, sequence (P27986 whole entry partner, species assumed): as the sequence (P27986 whole entry partner, species assumed) above

Cc1cc(-c2cncc([C@@H](O)C(F)(F)F)c2)nc2c1C(=O)N(c1cnn(CC(F)F)c1)C2(C)C [Compound 1, (R)-6-(1-(2,2-difluoroethyl)-1H-pyrazol-4-yl)-4,7,7-trimethyl-2-(5-(2,2,2-trifluoro-1-hydroxyethyl)pyridin-3-yl)-6,7-dihydro-5H-pyrrolo[3,4-b]pyridin-5-one]
Ki (PI3K-α; PI3Kα): 280 ± 90 nM | Fold Selectivity (PI3K-α; PI3Kγ over PI3Kα): 30 fold | Ki (PI3K-β; PI3Kβ): 220 ± 30 nM | Fold Selectivity (PI3K-β; PI3Kγ over PI3Kβ): 26 fold | Ki (PI3K-γ; PI3K-gamma, ATP-competitive): 8 nM | selectivity for PI3K-gamma (PI3K-γ; against PI3K-alpha, PI3K-beta and PI3K-delta isoforms): greater than 15 fold | Fold Selectivity (PI3K-δ; PI3Kγ over PI3Kδ): 19 fold | Ki (PI3K-δ; PI3Kδ): 160 ± 50 nM | selectivity over PI3K-alpha/beta (HUVECs; HUVEC proliferation): > 74 fold | IC50 (HUVECs; 96 h, HUVEC Proliferation, 96 hours, PI3K-alpha/beta dependent, read-out: IC50 Avg +/− SD): > 19 µM | IC50 (HUVECs; footnote * of Table 4, no anchor in the table, read-out: Individual assay data (IC50)): > 20 µM | selectivity over PI3K-alpha and PI3K-beta in cell based assays (HUVECs; summary): 40-80 fold | CYP1A2 mRNA message (CYP1A2; 0.5 μM, lot 8123): 0.6 (0.6)* fold change | Phenacetin O-Dealkylation (CYP1A2; 0.5 μM, lot 8123): 0.6 (0.6)* fold change | CYP1A2 mRNA message (CYP1A2; 0.5 μM, lot LMP): 0.6 fold change | Phenacetin O-Dealkylation (CYP1A2; 0.5 μM, lot LMP): 0.7 fold change | CYP1A2 mRNA message (CYP1A2; 0.5 μM, lot YOW): 0.5 fold change | Phenacetin O-Dealkylation (CYP1A2; 0.5 μM, lot YOW): 1.1 fold change | CYP1A2 mRNA message (CYP1A2; 1.0 μM, lot 8123): 0.5 (0.5) fold change | Phenacetin O-Dealkylation (CYP1A2; 1.0 μM, lot 8123): 0.5 (0.5) fold change | CYP1A2 mRNA message (CYP1A2; 1.0 μM, lot LMP): 0.6 fold change | Phenacetin O-Dealkylation (CYP1A2; 1.0 μM, lot LMP): 0.8 fold change | CYP1A2 mRNA message (CYP1A2; 1.0 μM, lot YOW): 0.4 fold change | Phenacetin O-Dealkylation (CYP1A2; 1.0 μM, lot YOW): 1.1 fold change | CYP1A2 mRNA message (CYP1A2; 5.0 μM, lot 8123): 0.5 fold change | Phenacetin O-Dealkylation (CYP1A2; 5.0 μM, lot 8123): 0.8 fold change | CYP1A2 mRNA message (CYP1A2; 5.0 μM, lot LMP): 0.7 fold change | Phenacetin O-Dealkylation (CYP1A2; 5.0 μM, lot LMP): 0.9 fold change | CYP1A2 mRNA message (CYP1A2; 5.0 μM, lot YOW): 0.6 fold change | Phenacetin O-Dealkylation (CYP1A2; 5.0 μM, lot YOW): 1.1 fold change | CYP1A2 mRNA message (CYP1A2; 10.0 μM, lot 8123): 1.2 fold change | Phenacetin O-Dealkylation (CYP1A2; 10.0 μM, lot 8123): 0.7 fold change | CYP1A2 mRNA message (CYP1A2; 10.0 μM, lot LMP): 0.8 fold change | Phenacetin O-Dealkylation (CYP1A2; 10.0 μM, lot LMP): 1.0 fold change | CYP1A2 mRNA message (CYP1A2; 10.0 μM, lot YOW): 1.3 fold change | Phenacetin O-Dealkylation (CYP1A2; 10.0 μM, lot YOW): 1.2 fold change | CYP1A2 mRNA message (CYP1A2; 20.0 μM, lot 8123): 2.6 fold change | Phenacetin O-Dealkylation (CYP1A2; 20.0 μM, lot 8123): 1.2 fold change | CYP1A2 mRNA message (CYP1A2; 20.0 μM, lot LMP): 0.7 fold change | Phenacetin O-Dealkylation (CYP1A2; 20.0 μM, lot LMP): 1.1 fold change | CYP1A2 mRNA message (CYP1A2; 20.0 μM, lot YOW): 0.8 fold change | Phenacetin O-Dealkylation (CYP1A2; 20.0 μM, lot YOW): 1.3 fold change | Phenacetin O-Dealkylation (CYP1A2; 30.0 μM, lot 8123): 1.3 (NR^2) fold change | CYP1A2 mRNA message (CYP1A2; 30.0 μM, lot LMP): 1.4 fold change | Phenacetin O-Dealkylation (CYP1A2; 30.0 μM, lot LMP): 1.1 fold change | Phenacetin O-Dealkylation (CYP1A2; 30.0 μM, lot YOW): 1.5 (NR^2) fold change | change in CYP1A2 activity and mRNA levels, % of the positive control (CYP1A2; all three hepatocyte lots, 48 hour exposure): less than 20% | DN_AUCINF [1, 2]: 3.1 µg·h/mL | F ([1]; Dog, 3 mg/kg nominal, spray-dried dispersion, 3 mg/kg): 77% | DN_AUCINF [1, 3]: 2.5 µg·h/mL | DN_AUCINF [1, 4]: 2.76 µg·h/mL | F ([1]; Mouse, 1 mg/kg nominal, 0.2% MC/1% SLS, 1 mg/kg): 81% | AUC [1, 2]: 9110 ng·h/mL | AUC(0-inf) [1, 2]: 9290 ng·h/mL | Cmax [1, 2]: 1290 ng/mL | MRT [1, 2]: 9 h | Tmax [1, 2]: 0.83 h | half-life [1, 2]: 438 min | AUC [1, 3]: 12300 ng·h/mL | AUC(0-inf) [1, 3]: 12500 ng·h/mL | Cmax [1, 3]: 1350 ng/mL | MRT [1, 3]: 10.5 h | Tmax [1, 3]: 1.67 h | half-life [1, 3]: 510 min | AUC [1, 4]: 2720 ng·h/mL | AUC(0-inf) [1, 4]: 2760 ng·h/mL | Cmax [1, 4]: 290 ng/mL | MRT [1, 4]: 5.8 h | Tmax [1, 4]: 2 h | half-life [1, 4]: 228 min
